Laboratory results taken from US6340693B1, “Protective agent for nervous system structural cells” (Toray Industries, Inc., priority 1997, dated 2002).

How the values were obtained:
Format in all cases: cell-based
[1] = test system: nerve cells derived from a rat fetus (cerebral cortex); assay: Survival of cultured isolated nerve cells (cerebral cortex); details: serum-free DF medium, 3 days culture, 1 and 10 μM beraprost sodium, student t-test vs control
Description: (§1) Effect of improving survival rate of cultured isolated nerve cells:
(§2) The protective effect of beraprost sodium on nerve cells was examined by using nerve cells derived from a rat fetus. The cerebral cortex and hippocampus were obtained from the brain of a rat fetus of 17 days age, and isolated nerve cells were obtained therefrom by trypsin and pipetting treatment. The thus-obtained cells were inoculated into a 48-well culture plate coated with polylysine at a cell concentration of 5×10^3 cells/cm^2; followed by culture in a DF medium containing no serum at 37° C. for 3 days. After completion of culture, the cells were fixed by formalin, and the number of cells having axons was measured under a microscope. Beraprost sodium was added in an amount of each of 1, 10 and 100 μM during culture.
(§3) The results are shown in FIG. 1 (In the figure, * and ** represent student t-test results. *: p<0.05 vs control. **: p<0.01 vs control. This applies to the description below). The nerve cells gradually died and fell under the conditions in this example, beraprost sodium prevented falling of the nerve cells, and increased the number of survival cells depending upon the concentration.

[2] = test system: nerve cells derived from a rat fetus (hippocampus); assay: Survival of cultured isolated nerve cells (hippocampus); details: serum-free DF medium, 3 days culture, 10 μM beraprost sodium, student t-test vs control
Description: as §1, §2, §3

Human glioma cells = assay: Human glioma cell disorder due to peroxide (TBH)
Experimental: Human glioma cells were separated from a patient of glioma (person), and then subjected to subculture in a 10% FCS-D-MEM medium (a Dulbecco's MEM medium (Nissui) containing 10% fetal calf serum). The cells were dispersed into single cells by trypsin-EDTA treatment, and then a 10% FCS-D-MEM medium was added to recover the cells, followed by centrifugation at 1200 rpm for 5 minutes. After centrifugation, the cells were prepared to 1×10^6 cells/ml by a HEPES buffer (Hanks' solution (Nissui) containing 15 mM HEPES, pH 7.4), and beraprost sodium (0.1 to 30 μM) was added to the cell solution, followed by incubation at 37° C. for 30 minutes. Then, […] of TBH (tertiary butyl hydroperoxide, Funakoshi) as a peroxide was added to the cell solution, followed by further incubation at 37° C. for 30 minutes. After reaction was stopped under ice cooling, some of the cells are collected, and divided into living cells and dead cells by trypan blue staining, followed by counting to determine the survival rate of the cells. The residual cells were centrifuged at 2000 rpm for 5 minutes, and then the amount of thiobarbituric acid reaction substance (TBARS amount) was measured according to the known method (Ohkawa, H., Ohnishi, N. and Yagi, K. Anal. Biochem., 95, 351-358 (1979)) and considered as an index of peroxidation of cell membrane lipid. […]

beraprost sodium
number of survival cells (cells having axons) [1]: increase was significant | number of survival cells (cells having axons) [2]: increase was significant | decrease in the survival rate of cells by TBH treatment (trypan blue staining) (Human glioma cells; 0.1 μM or more of beraprost sodium, 30 min pre-incubation, then 800 μm TBH for 30 min at 37° C.): significantly (p<0.01) suppressed | TBARS amount as an index of peroxidation of cell membrane lipid (increase by TBH treatment) (Human glioma cells; beraprost sodium 0.1 to 30 μM, TBH-treated cells): did not affect such an increase
